This note sets out measurements from patent US7618623B2, “Hybrid adeno-retroviral vector for the transfection of cells” (priority 2000, dated 2009).

Data set [1] has as its system HSG cells. The text has this: HSG cells were a generous gift from […]. M. Sato (Tokushima University, Japan) (Shirasuna et al., Cancer 48:745, 1981) and were maintained in vitro as previously described (He et al., Pflugers Arch., 36:416, 1990). For the experiments presented herein, HSG cells were dispersed from semi-confluent plates using a solution of Versene 1:5000 in Hanks' balanced salt solution without calcium and magnesium (BioFluids, Rockville Md.). Cells were then resuspended in fresh media consisting of a 1:1 mixture of Eagle's Minimal Essential Medium, (Dulbecco's Modification) and Ham's F-12 supplemented with 2 mM glutamine (BioFluids), 10% fetal calf serum (Hyclone, Logan, Utah), and 100 units/ml penicillin, 100 μg/ml streptomycin and 2.5 μg/ml fungizone (BioFluids).
Cells were grown in 96-well culture plates at a density of 1×10^4 cells/well. […] Six hours after infection, GCV (Cytovene®, Syntex Laboratories, Inc., Palo Alto Calif.) was added to the media at concentrations of 0.5, 5, or 50 μM. After incubation for different time points, the sensitivity of cells to the GCV prodrug was evaluated using two separate methods, assaying either with the tetrazolium salt of 3-(4,5-dimethylthiazol-2-yl)-2,5-diphenyl […] bromide (MTT assay, Chemicon International Inc., Temecula, Calif.) or direct cell counting after trypan blue staining (Bio-Whittaker, Walkersville, Md.).
To assess the ability of the HSV-tk transgene to function in HSG cells, cell viability was studied on tissue culture plastic using the MTT assay. HSG cells were infected with different vector MOIs, and thereafter incubated with several concentrations of GCV (Candotti et al., Cancer Gene Ther., 7:574, 2000).

The test system of data set [2] is HSG cells. Nature of the data set: Trypan blue staining and manual cell counting on plastic. The note with it: cells infected with AdLTR.CMV-tk at a MOI of 10; 0.5, 5, 50 μM GCV. Type of data set: cell-based, human. The text has this: HSG cells were a generous gift from […].
To determine the surviving cell number under these growth conditions on a plastic substrate following GCV treatment, in separate experiments trypan blue staining was used as well as manual cell counting.

Data set [3] deals with HSG cells. Nature of the data set: Cell death on fibronectin-coated poly-L-lactic acid disks (crystal violet staining, cell count). Type of data set: cell-based, human. To be noted: for cell death: cells infected with AdLTR.CMV-tk (MOI of 10). As for the experimental part: Two-dimensional films of poly-L-lactic acid (Boehringer Ingelheim Inc., Winchester, Va.) were produced by melt processing polymer pellets between sheets of aluminum foil using a Carver press at 350° F. to create disks with diameters of 20-25 mm. The disks were sterilized using y-irradiation for ˜150 min with a dose of 20,000 Gy.
Disks were gently placed in each well of a 6-well tissue culture plate (Becton Dickinson, Franklin Lakes, N.J.) and immersed in phosphate-buffered saline (PBS; GibcoBRL, Grand Island, N.Y.) for 18 hours with 5 μg/ml fibronectin at 37° C. (Aframian et al., Tissue Engin. 6:209, 2000). Thereafter, the coated disks were blocked for 1 hr with bovine serum albumin (Calbiochem-Novabiochem Corp., La Jolla, Calif.) at 37° C. and then gently washed twice with PBS (Aframian et al., op. cit.). Cell suspensions (1×10^5 cells; 2 ml/well) were added in complete culture medium and incubated at 37° C. for an additional 18 hours. Thereafter, the medium was discarded, and 10 MOI of virus diluted in PBS was added for an additional 6 hr. Next, GCV diluted in medium was added, and after an additional 125 hr the disks were washed twice in PBS, then stained with 0.2% crystal violet in 20% ethanol for 20 min (Aframian et al., op. cit). The disks were then rinsed twice with PBS and examined under a light microscope using a 10× objective. Three randomly selected photomicrographs were obtained from each specimen using 200 ASA color slide film (Elite chrome, Kodak, Rochester, N.Y.). The slides were scanned to convert them to digital images and, using Adobe Photoshop®, three 200 μm^2 regions were randomly chosen from each field, and cell number was determined visually.
An artificial salivary gland device will have cells grown as a monolayer on a fibronectin-coated poly-L-lactic acid substratum (Aframian et al., Tissue Engin. 6:209, 2000), rather than on tissue culture plastic. Therefore, the ability of GCV to elicit HSG cell death when the cells were attached to poly-L-lactic acid disks pre-coated with 5 μg/ml of human fibronectin was determined. […] The GCV effect ranged from 40% cell death at 0.5 μM GCV to 95% cell death when the GCV concentration was 50 μM.

The structures appear in SMILES notation. Read-outs that look alike come from different tables or passages of the source.

Consider `Nc1nc(O)c2ncn(COC(CO)CO)c2n1` [GCV, ganciclovir], for which the “effect on HSG cell growth and viability” value in the data set on HSG cells [1] (GCV doses up to 50 μM, absence of AdLTR.CMV-tk infection) is given as “does not affect”. Also, the “effect of GCV on viability” value is reported as “without effect” in the data set with HSG cells [1] (cells infected with AdLTR.CMV-tk at a MOI of 1) and “without effect” in the data set with HSG cells [1] (uninfected cells, 0.5, 5, 50 μM GCV). Moreover, in the data set with HSG cells [1] (cells infected with AdLTR.CMV-tk at a MOI of 10, all prodrug concentrations (0.5, 5, 50 μM)), the “reduced viability compared to no GCV treatment” value was > 50%. Moreover, in the data set with HSG cells [2], the “decrease in number of viable cells compared with cells infected with 10 MOI alone” value is reported as “up to 3 fold”. In the data set with HSG cells [3] (50 μM GCV alone, no infection), the “appearance of cell monolayers” value is listed as “appeared normal”. Moreover, the “cells remaining on the disk” value in the data set with HSG cells [3] (AdLTR.CMV-tk at a MOI of 10 followed by 50 μM of GCV) is reported as “loss of almost all of the cells”. The figures for the cell death with HSG cells [3] (0.5 μM GCV) and with HSG cells [3] (50 μM GCV) were 40% and 95%, respectively.
